From patent publication US11566007B2, “Ras inhibitors” (Revolution Medicines, Inc., priority 2019, dated 2023)
Like-named read-outs stand apart in the source and are kept apart here.

How the values were obtained:
[1] = system: NCI-H358 (K-Ras G12C); assay: CellTiter-Glo cell viability assay, NCI-H358; type: cell-based, human; details: NCI-H358, 5-day treatment, class symbols, read-out: Additional H358 Cell Viability assay data (K-Ras G12C, IC50)
Summary of the method: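 Viability measured by CellTiter-Glo luminescence on day 5 following direct addition of compound to plated cells. Values expressed as percent of mean DMSO signal; curves fitted with a four-parameter logistic model.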

[2] = biological target: KRAS G12D (Homo sapiens (Human), UniProt P01116+P62937, G12D); assay: Ras-Raf (BRAF RBD) disruption / FRET / MOA assay, KRAS G12D; type: biochemical; details: Ras-Raf disruption/FRET/MOA assay; class symbols; read-out: KRAS G12D FRET data IC50
Summary of the method: (§1)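 Ras:RAF disruption was scored as a fall in TR-FRET ratio relative to DMSO. Compound ranged in 3-fold steps over 10 points from 30 μM final; incubation ran 3 h at 25° C, detection antibodies a further 1.5 h. Reported as IC50.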

[3] = biological target: KRAS G13D (Homo sapiens (Human), UniProt P01116+P62937, G13D); assay: Ras-Raf (BRAF RBD) disruption / FRET / MOA assay, KRAS G13D; type: biochemical; details: read-out: IC50* KRAS G13D FRET data
Summary of the method: as §1

[4] = system: NCI-H358 cells (K-Ras G12C); assay: Potency assay: pERK in NCI-H358 cells; type: cell-based, human; details: Homo sapiens, NCI-H358; H358 KRAS G12C; read-out: pERK EC50
Summary of the method: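 4 h cpd, 37 °C; 10-pt 3-fold series, 10 mM DMSO top stock, duplicates. Readout pERK: AlphaLISA SureFire Ultra or In-Cell Western (IR-800CW secondary, DRAQ5 DNA stain). IC50, 4-PL fit vs log conc.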

[5] = biological target: K-Ras G12C (Homo sapiens (Human), UniProt P01116+P62937, G12C); assay: Ras-Raf (BRAF RBD) disruption / FRET / MOA assay, KRAS G12C; type: biochemical; details: KRAS G12C; Ras-Raf disruption/FRET/MOA assay; read-out: IC50* KRAS G12C FRET data
Summary of the method: as §1

[6] = biological target: K-Ras G13C (Homo sapiens (Human), UniProt P01116+P62937, G13C); assay: Ras-Raf (BRAF RBD) disruption / FRET / MOA assay, KRAS G13C; type: biochemical; details: KRAS G13C; Ras-Raf disruption/FRET/MOA assay; read-out: IC50* KRAS G13C FRET data
Summary of the method: as §1

[7] = biological target: NRAS G12C (Homo sapiens (Human), UniProt P01111+P62937, G12C); assay: Ras-Raf (BRAF RBD) disruption / FRET / MOA assay, NRAS G12C; type: biochemical; details: read-out: IC50* NRAS G12C FRET data
Summary of the method: as §1

[8] = biological target: KRAS G12V (Homo sapiens (Human), UniProt P01116+P62937, G12V); assay: Ras-Raf (BRAF RBD) disruption / FRET / MOA assay, KRAS G12V; type: biochemical; details: read-out: IC50* KRAS G12V FRET data
Summary of the method: as §1

[9] = biological target: KRAS WT (Homo sapiens (Human), UniProt P01116+P62937); assay: Ras-Raf (BRAF RBD) disruption / FRET / MOA assay, KRAS WT; type: biochemical; details: read-out: IC50* KRAS WT FRET data
Summary of the method: as §1

[10] = biological target: KRAS G12S (Homo sapiens (Human), UniProt P01116+P62937, G12S); assay: Ras-Raf (BRAF RBD) disruption / FRET / MOA assay, KRAS G12S; type: biochemical; details: Ras-Raf disruption/FRET/MOA assay; class symbols; read-out: KRAS G12S FRET data IC50
Summary of the method: as §1

Sequence of KRAS G12V (P01116-2 other isoform, or with tags, fused parts or gaps G12V): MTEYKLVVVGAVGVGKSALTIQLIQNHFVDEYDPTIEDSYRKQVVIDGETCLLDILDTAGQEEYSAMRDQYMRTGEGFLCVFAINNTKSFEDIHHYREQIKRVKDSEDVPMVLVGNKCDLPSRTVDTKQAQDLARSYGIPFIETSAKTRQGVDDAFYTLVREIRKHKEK
Sequence of KRAS G12V (P62937 whole entry): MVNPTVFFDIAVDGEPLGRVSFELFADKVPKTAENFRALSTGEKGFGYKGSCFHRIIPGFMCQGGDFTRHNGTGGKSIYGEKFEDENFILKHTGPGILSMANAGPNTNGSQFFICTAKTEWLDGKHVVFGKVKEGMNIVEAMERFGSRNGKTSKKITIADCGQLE
Sequence of K-Ras G13C (P01116-2 other isoform, or with tags, fused parts or gaps G13C): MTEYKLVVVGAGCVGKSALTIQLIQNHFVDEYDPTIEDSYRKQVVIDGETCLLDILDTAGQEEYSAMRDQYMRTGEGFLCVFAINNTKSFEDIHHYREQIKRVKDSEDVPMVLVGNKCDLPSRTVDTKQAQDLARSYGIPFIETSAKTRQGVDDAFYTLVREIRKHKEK
Sequence of K-Ras G13C (P62937 whole entry): as the sequence (P62937 whole entry) above
Sequence of K-Ras G12C (P01116-2 other isoform, or with tags, fused parts or gaps G12C): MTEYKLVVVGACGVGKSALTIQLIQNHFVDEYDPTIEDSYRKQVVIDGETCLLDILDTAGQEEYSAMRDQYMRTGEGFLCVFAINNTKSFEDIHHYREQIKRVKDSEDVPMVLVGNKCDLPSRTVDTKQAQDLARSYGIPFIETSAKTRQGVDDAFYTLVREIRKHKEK
Sequence of K-Ras G12C (P62937 whole entry): as the sequence (P62937 whole entry) above
Sequence of NRAS G12C (P01111 whole entry G12C): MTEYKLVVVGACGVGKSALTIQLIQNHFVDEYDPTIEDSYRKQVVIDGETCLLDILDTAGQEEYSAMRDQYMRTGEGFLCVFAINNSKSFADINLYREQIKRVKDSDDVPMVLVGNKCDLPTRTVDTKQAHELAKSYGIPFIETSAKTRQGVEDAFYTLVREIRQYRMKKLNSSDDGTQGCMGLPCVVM
Sequence of NRAS G12C (P62937 whole entry): as the sequence (P62937 whole entry) above
Sequence of KRAS G12S (P01116-2 other isoform, or with tags, fused parts or gaps G12S): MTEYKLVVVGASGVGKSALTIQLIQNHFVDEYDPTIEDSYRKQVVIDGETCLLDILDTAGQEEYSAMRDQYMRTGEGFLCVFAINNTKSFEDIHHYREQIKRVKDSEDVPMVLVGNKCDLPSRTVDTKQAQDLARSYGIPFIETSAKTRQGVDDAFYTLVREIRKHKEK
Sequence of KRAS G12S (P62937 whole entry): as the sequence (P62937 whole entry) above
Sequence of KRAS G13D (P01116-2 other isoform, or with tags, fused parts or gaps G13D): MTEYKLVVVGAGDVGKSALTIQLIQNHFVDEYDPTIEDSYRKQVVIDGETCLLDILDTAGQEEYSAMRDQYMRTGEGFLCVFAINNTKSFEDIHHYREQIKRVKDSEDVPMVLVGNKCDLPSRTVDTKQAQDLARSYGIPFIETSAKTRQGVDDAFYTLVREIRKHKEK
Sequence of KRAS G13D (P62937 whole entry): as the sequence (P62937 whole entry) above
Sequence of KRAS WT (P01116-2 other isoform, or with tags, fused parts or gaps): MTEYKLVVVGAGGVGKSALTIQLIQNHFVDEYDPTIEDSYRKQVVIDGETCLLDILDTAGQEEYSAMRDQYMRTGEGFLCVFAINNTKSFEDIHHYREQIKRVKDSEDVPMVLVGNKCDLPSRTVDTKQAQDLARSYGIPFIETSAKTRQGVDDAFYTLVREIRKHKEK
Sequence of KRAS WT (P62937 whole entry): as the sequence (P62937 whole entry) above
Sequence of KRAS G12D (P01116-2 other isoform, or with tags, fused parts or gaps G12D): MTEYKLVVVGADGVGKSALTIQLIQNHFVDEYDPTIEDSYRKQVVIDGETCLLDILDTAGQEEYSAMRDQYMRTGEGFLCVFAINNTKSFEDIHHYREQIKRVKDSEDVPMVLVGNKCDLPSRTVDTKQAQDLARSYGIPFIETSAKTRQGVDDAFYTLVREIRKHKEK
Sequence of KRAS G12D (P62937 whole entry): as the sequence (P62937 whole entry) above

Compound | IC50 ([1]; Homo sapiens, NCI-H358, 120 h) | IC50 [2] | IC50 [3] | EC50 [4] | IC50 [5] | IC50 [6] | IC50 [7] | IC50 [8] | IC50 [9] | IC50 [10] | IC50 [1]
C=CC(=O)NC1CN(C(=O)N(C)[C@H](C(=O)N[C@H]2Cc3nc(cs3)-c3ccc4c(c3)c(c(-c3cccnc3[C@H](C)OC)n4CC)CC(C)(C)COC(=O)[C@@H]3CCCN(N3)C2=O)C(C)C)C1 (atropisomer, axis not shown) [Example A490] | 10 to 100 nM | 1000 to 10000 nM | 100 to 1000 nM | < 5000 nM | 10 to 100 nM | 100 to 1000 nM | 10 to 100 nM | 100 to 1000 nM | 100 to 1000 nM | 100 to 1000 nM | –
C=CC(=O)N1C[C@@H](C)[C@H](C(=O)N(C)[C@H](C(=O)N[C@H]2Cc3cccc(c3)-c3ccc4c(c3)c(c(-c3cccnc3[C@H](C)OC)n4CC)CC(C)(C)COC(=O)[C@@H]3CCCN(N3)C2=O)C(C)C)C1 (atropisomer, axis not shown) [Example A497] | 10 to 100 nM | > 10000 nM | > 10000 nM | < 5000 nM | 100 to 1000 nM | 100 to 1000 nM | 100 to 1000 nM | > 10000 nM | 1000 to 10000 nM | > 10000 nM | –
CCn1c(-c2cccnc2[C@H](C)OC)c2c3cc(ccc31)-c1cccc(c1)C[C@H](NC(=O)[C@H](C(C)C)N(C)C(=O)[C@H]1CCN(C(=O)C#CC3(N(C)C)CN(C)C3)C1)C(=O)N1CCC[C@H](N1)C(=O)OCC(C)(C)C2 (atropisomer, axis not shown) [Example A499] | 10 to 100 nM | 1000 to 10000 nM | 1000 to 10000 nM | < 5000 nM | 10 to 100 nM | 1000 to 10000 nM | 10 to 100 nM | 1000 to 10000 nM | 1000 to 10000 nM | 1000 to 10000 nM | –
C=CC(=O)N1CC[C@](F)(C(=O)N(C)[C@H](C(=O)N[C@H]2Cc3cccc(c3)-c3ccc4c(c3)c(c(-c3cccnc3[C@H](C)OC)n4CC)CC(C)(C)COC(=O)[C@@H]3CCCN(N3)C2=O)C(C)C)C1 (atropisomer, axis not shown) [Example A501] | 10 to 100 nM | 1000 to 10000 nM | 1000 to 10000 nM | < 5000 nM | 10 to 100 nM | 100 to 1000 nM | 10 to 100 nM | 1000 to 10000 nM | 100 to 1000 nM | 1000 to 10000 nM | –
CC#CC(=O)N1CC[C@]2(CCN([C@H](C(=O)N[C@H]3Cc4nc(cs4)-c4ccc5c(c4)c(c(-c4cccnc4[C@H](C)OC)n5CC)CC(C)(C)COC(=O)[C@@H]4CCCN(N4)C3=O)C(C)C)C2=O)C1 (atropisomer, axis not shown) [Example A511] | < 10 nM | > 10000 nM | 1000 to 10000 nM | < 5000 nM | 100 to 1000 nM | 1000 to 10000 nM | 100 to 1000 nM | 1000 to 10000 nM | 1000 to 10000 nM | 1000 to 10000 nM | –
C=CC(=O)N1CC[C@H](C(=O)N(C)[C@H](C(=O)N[C@H]2Cc3cccc(c3)-c3ccc4c(c3)c(c(-c3cccnc3[C@@H]3CCCO3)n4CC)CC(C)(C)COC(=O)[C@@H]3CCCN(N3)C2=O)C(C)C)C1 (atropisomer, axis not shown) [Example A512] | 10 to 100 nM | > 10000 nM | > 10000 nM | < 5000 nM | 100 to 1000 nM | 1000 to 10000 nM | 100 to 1000 nM | 1000 to 10000 nM | 1000 to 10000 nM | 1000 to 10000 nM | –
C=CC(=O)N1CC[C@H](C(=O)N(C)[C@H](C(=O)N[C@H]2Cc3cccc(c3)-c3ccc4c(c3)c(c(-c3cc(C5=CCN(C)CC5)cnc3[C@H](C)OC)n4CC)CC(C)(C)COC(=O)[C@@H]3CCCN(N3)C2=O)C(C)C)C1 (atropisomer, axis not shown) [Example A513] | – | 1000 to 10000 nM | 1000 to 10000 nM | < 5000 nM | 10 to 100 nM | 100 to 1000 nM | 10 to 100 nM | 1000 to 10000 nM | 1000 to 10000 nM | 1000 to 10000 nM | < 10 nM
C=CC(=O)N1CC(F)(C(=O)N(C)[C@H](C(=O)N[C@H]2Cc3cccc(c3)-c3ccc4c(c3)c(c(-c3cccnc3[C@H](C)OC)n4CC)CC(C)(C)COC(=O)[C@@H]3CCCN(N3)C2=O)C(C)C)C1 (atropisomer, axis not shown) [Example A517] | < 10 nM | 1000 to 10000 nM | 1000 to 10000 nM | < 5000 nM | 10 to 100 nM | 10 to 100 nM | 10 to 100 nM | 100 to 1000 nM | 100 to 1000 nM | 100 to 1000 nM | –
C=CC(=O)N1CCC(F)(C(=O)N(C)[C@H](C(=O)N[C@H]2Cc3cccc(c3)-c3ccc4c(c3)c(c(-c3cccnc3[C@H](C)OC)n4CC)CC(C)(C)COC(=O)[C@@H]3CCCN(N3)C2=O)C(C)C)CC1 (atropisomer, axis not shown) [Example A518] | < 10 nM | 1000 to 10000 nM | 100 to 1000 nM | < 5000 nM | 10 to 100 nM | 100 to 1000 nM | 10 to 100 nM | 100 to 1000 nM | 100 to 1000 nM | 100 to 1000 nM | –
C=CC(=O)Nc1cnc(C(=O)N(C)[C@H](C(=O)N[C@H]2Cc3cccc(c3)-c3ccc4c(c3)c(c(-c3cccnc3[C@H](C)OC)n4CC)CC(C)(C)COC(=O)[C@@H]3CCCN(N3)C2=O)C(C)C)n1C (atropisomer, axis not shown) [Example A524] | 10 to 100 nM | > 10000 nM | > 10000 nM | < 5000 nM | 100 to 1000 nM | 100 to 1000 nM | 100 to 1000 nM | > 10000 nM | > 10000 nM | > 10000 nM | –
C#CCn1c(-c2cccnc2[C@H](C)OC)c2c3cc(ccc31)-c1cccc(c1)C[C@H](NC(=O)[C@H](C(C)C)N(C)C(=O)[C@H]1CCN(C(=O)C=C)C1)C(=O)N1CCC[C@H](N1)C(=O)OCC(C)(C)C2 (atropisomer, axis not shown) [Example A530] | 10 to 100 nM | > 10000 nM | > 10000 nM | < 5000 nM | 100 to 1000 nM | 1000 to 10000 nM | 100 to 1000 nM | 1000 to 10000 nM | 1000 to 10000 nM | 1000 to 10000 nM | –
CCn1c(-c2cccnc2[C@H](C)OC)c2c3cc(ccc31)-c1cccc(c1)C[C@H](NC(=O)[C@H](C(C)C)N(C)C(=O)[C@H]1CCN(C(=O)C#CC3(N(C)C)CCOCC3)C1)C(=O)N1CCC[C@H](N1)C(=O)OCC(C)(C)C2 (atropisomer, axis not shown) [Example A532] | < 10 nM | > 10000 nM | > 10000 nM | < 5000 nM | 10 to 100 nM | 1000 to 10000 nM | 10 to 100 nM | 1000 to 10000 nM | 1000 to 10000 nM | 1000 to 10000 nM | –
CC#CC(=O)N1CC[C@@]2(CCN([C@H](C(=O)N[C@H]3Cc4nc(cs4)-c4ccc5c(c4)c(c(-c4cccnc4[C@H](C)OC)n5CC)CC(C)(C)COC(=O)[C@@H]4CCCN(N4)C3=O)C(C)C)C2=O)C1 (atropisomer, axis not shown) [Example A535] | 10 to 100 nM | > 10000 nM | > 10000 nM | < 5000 nM | 1000 to 10000 nM | 1000 to 10000 nM | 1000 to 10000 nM | > 10000 nM | > 10000 nM | 1000 to 10000 nM | –
